Tests used:
[1] = Unbound brain fraction (fu,brain) in mouse brain by equilibrium dialysis; assay type: in vitro ADME; settings: 20% mouse brain homogenate, 5 μM, equilibrium dialysis 6 h at 37° C., average of triplicate
Experimental: Compounds were tested for unbounded brain fraction (or free fraction in brain, fu,brain). It is an accepted standard in the CNS PET imaging field that compounds with low unbound fraction in brain (<5%) likely have high non-specific binding background that is undesirable for the detection of target binding. As a result, fu,brain is an important property in the design of PET ligands for brain imaging [see Zhang et al., Design and selection parameters to accelerate the discovery of novel central nervous system positron emission tomography (PET) ligands and their application in the development of a novel phosphodiesterase 2A PET ligand. J Med Chem 2013, 56 (11), 4568-79; Liu et al., Imaging Mutant Huntingtin Aggregates: Development of a Potential PET Ligand. J Med Chem 2020, 63 (15), 8608-8633].
Determining fu,brain in Mouse Brain by Equilibrium Dialysis. Dialysis membranes (12-14 kDa) (HTDialysis, Connecticut) were soaked in phosphate buffer (10 mM potassium phosphate and 0.8% sodium chloride buffer, pH 7.4 at 37° C.) for a minimum of 1 h, at this time ethanol was added (final concentration of 20% v/v) and membranes continued to soak for 30 min Mouse brain tissue was diluted in phosphate buffer in a […] (w/v) and homogenised using a Precellys 24 (Stretton Scientific, UK) to achieve a final concentration of 20% brain homogenate.
Test compounds prepared as DMSO stocks at 0.5 mM are diluted into brain homogenate to achieve 5 μM final substrate concentration (1% DMSO) and a t=0 sample was prepared by sampling 50 μL of into 400 μL of quench solution (Acetonitrile containing 0.1% formic acid and sulfisoxazole/tolbutamide/imipramine/labetalol 200 nM). Samples were matrix matched with the addition of 50 μL of assay buffer. The HTDialysis Teflon blocks (HTDialysis, Connecticut) were assembled with pre-soaked membrane between each receiver and donor well and clamped in the stainless steel pressure plate (HTDialysis, Connecticut). The lower compartment (acceptor side) was dosed with 120 μL of buffer and the upper compartment (donor side) was dosed with 120 μL of compound in homogenate. All test compounds and controls were completed in triplicate. The HT dialysis plate was sealed and incubated for 6 h at 37° C. shaking at 250 rpm.
Following the incubation, 50 μL of sample was removed from all donor and acceptor wells and transferred into a quench plate containing 400 μL of quench solution. All samples were matrix matched with 50 μL of the alternate blank matrix. Analytical samples were diluted 1:1 with water using the Janus Robot and analysed by LC-MS/MS.
Peak areas of donor and acceptor compartments were compared to determine percent unbound (% fu) and the average of triplicate measurements was reported. Reference T0 sample was used to calculate sample recovery (%). Control compounds were compared with historic and literature values to ensure assay functionality.

[2] = biological target: T1, MBP-HTT(1-89)Q46-His(6×) (Exon1-Q46) protein aggregates (Homo sapiens, UniProt P42858, INS38QQQQQQQQQQQQQQQQQQQQQQQQQ); assay: Exon1-Q46 radioligand binding assay (RBA); settings: aggregated Exon1-Q46 1 μM; 0.3 nM ligand [3H3-methyl]-5-((5-methoxypyridin-2-yl)methoxy)-2-(pyrazin-2-yl)benzo[d]oxazole; 60 minutes at 37° C.; read-out: Potency Range (IC50)
T1 construct: MBP-HTT(1-89)Q46-His(6×); His(6×) (C); made in house
T1 sequence (P42858 with tags, fused parts or gaps with the stated changes): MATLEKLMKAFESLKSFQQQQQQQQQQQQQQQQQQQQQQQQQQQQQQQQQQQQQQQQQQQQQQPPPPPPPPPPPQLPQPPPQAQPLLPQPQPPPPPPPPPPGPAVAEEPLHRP
Experimental: Exon1-Q46 Radioligand Binding Assay
For radioligand binding assays (RBA) MBP-HTT(1-89)Q46-His(6×) (“Exon1-Q46”) protein was generated based on a previous publication (Scherzinger et al. Cell, Vol. 90, 549-558, Aug. 8, 1997). For experiments 30 μM MBP-Exon1-Q46 was incubated with 150 μg/mL thrombin in assay buffer (150 mM NaCl, 50 mM Tris pH 8.0) and 2 mM CaCl2 for 16 hours at 37° C. Aggregated Exon1-Q46 was pelleted by centrifugation for 5 minutes at 13,000 rpm in a bench top centrifuge and re-dissolved in the same volume of assay buffer. Test compounds were prepared by titration in DMSO at 11 concentrations from 63 μM to 2 nM. For the RBA, Exon1-Q46 protein aggregates and test compounds were pre-incubated in assay buffer for 20 minutes at room temperature, in 100 μL/well in a 96-well plate (pp, round bottom). Then, ligand was added in 50 μL/well and incubated for 60 minutes at 37° C. Final assay concentrations were 1 μM to 30 pM test compound, 1 μM Exon1-Q46 protein (equivalent monomer concentration) and 0.3 nM ligand [^3H3-methyl]-5-((5-methoxypyridin-2-yl)methoxy)-2-(pyrazin-2-yl)benzo[d]oxazole. Samples were transferred onto GF/B filter plates and washed 2× with 200 μL PBS using a Filtermate Harvester. After drying filter plates for 1 hour at 55° C., the back of the plates were sealed with foil and 30 μL/well scintillation fluid (Packard MicroScint 40) added, incubated for 15 minutes in the dark and counted in a MicroBeta reader. For analysis, replicate data from independent assay plates were normalized towards 0% and 100% inhibition using control wells of vehicle (0% inhibition) and 1 μM unlabelled [^3H3-methyl]-5-((5-methoxypyridin-2-yl)methoxy)-2-(pyrazin-2-yl)benzo[d]oxazole (100% inhibition). IC50 values were determined with a sigmoidal inhibition model with four variables (top, bottom, slope, IC50) in a global fit using the normalized replicate data.
The results for various example compounds were as provided in the table below (+++<100 nM; ++100−500 nM; +>500 nM; ND: not determined): […]

| Mean Free Brain Fraction (%) [1] [%] | IC50 [2] [nM] | SMILES |
| --- | --- | --- |
| 7.4 | < 100 | COc1ccc(COc2ccc3c(c2)CN(c2ccc(=O)n(CF)n2)C3=O)nc1 [Compound 8-1, 2-(1-(Fluoromethyl)-6-oxo-1,6-dihydropyridazin-3-yl)-5-((5-methoxypyridin-2-yl)methoxy)isoindolin-1-one] |
| 6.6 | < 100 | COc1ccc(COc2cc3c(cc2F)C(=O)N(c2ccc(=O)[nH]n2)C3)nc1 [Compound 13-1, 6-Fluoro-5-((5-methoxypyridin-2-yl)methoxy)-2-(6-oxo-1,6-dihydropyridazin-3-yl)isoindolin-1-one] |
| 14.3 | < 100 | COc1ccc(COc2cc(F)c3c(c2)CN(c2ccc(=O)n(C)n2)C3=O)nc1 [Compound 10-1, 7-Fluoro-5-[(5-methoxypyridin-2-yl)methoxy]-2-(1-methyl-6-oxo-1,6-di-hydropyridazin-3-yl)-2,3-dihydro-1H-isoindol-1-one] |
| 3.2 | < 100 | COc1ccc2c(c1)CN(c1ccc(OCc3cccnc3)nc1)C2=O [Compound 11-1, 5-Methoxy-2-{6-[(pyridin-3-yl)methoxy]pyridin-3-yl}-2,3-dihydro-1H-isoindol-1-one] |
